Results as given in publication PMC9312114, “Synthesis and Evaluation of Novel DNA Minor Groove Binders as Antiamoebic Agents” (Antibiotics, 2022).
Values after ≈ are worked out from the molar mass of the structure shown.

Columns and labels:
HeLa cells = experiment: Cytotoxicity assay (LDH release); type: cell-based, human; settings: for cytotoxicity against human HeLa cells: 50 µM, 24 h, LDH release, Triton X-100 = 100%
Protocol: HeLa cells were acquired from American Type Culture Collection (ATCC) of identification ATCC CCL-2, Singapore. The cells are utilized to conduct cytotoxicity and cytopathogenicity assays. Through their cultivation in complete media, the cells were grown, and then they were placed in a 95% humidifying incubator at 37 °C and 5% CO2. Complete medium comprises Roswell Park Memorial Media (RPMI), 1% penicillin–streptomycin, 1% minimum essential medium amino acids, 1% L-glutamine, and 10% fetal bovine serum (FBS). To determine the toxicity of the compounds against human HeLa cells, cytotoxicity assays were conducted. In short, HeLa cells were cultured in 96-well plates and treated with the compounds. The plate was then placed in a humidifying incubator with 95% humidity and 5% CO2, at 37 °C, for 24 h. After 24 h, the supernatant was collected, and the cytotoxicity of the compounds was determined through a cytotoxicity detection kit that measured the quantity of lactate dehydrogenase (LDH) release. Accurate results were ensured through the addition of positive and negative controls. Untreated HeLa cells served as the negative control, whereas HeLa cells treated with 1% Triton X-100 served as the positive control. Finally, the cytotoxic properties were numerically determined by following the necessary calculations: (absorbance of media from cells treated with the drugs—absorbance of media from cells of negative control)/(absorbance of media from cells of positive control—absorbance of media from cells of negative control) × 100 [19].

[1] = test system: Acanthamoeba castellanii on HeLa cell monolayers; experiment: Cytopathogenicity assay (amoeba-mediated host-cell death); type: cell-based; settings: amoebae pretreated with 50 µM for 2 h, then 24 h on HeLa cells, negative control 100%
Protocol: Amoeba-mediated host-cell death was determined by treating 5 × 10^5 amoebae with 50 µM of compounds. The amoeba-containing plate was then placed in the incubator for 2 h at 30 °C. Following the 2 h incubation period, the treated amoebae were put on confluent HeLa cell monolayers. The plate containing the treated amoebae and HeLa cells was incubated for 24 h. Progressing the incubation period, the supernatant was collected, and the cytotoxicity was determined. Accurate results were ensured through the addition of negative and positive controls. The untreated amoebae, alone, on the cells served as the negative control, while the cells treated with Triton X-100 served as the positive control.

Acanthamoeba castellanii [2] = experiment: Amoebicidal assay; type: cell-based, Acanthamoeba castellanii genotype T4 (ATCC 50492); settings: for viability at 50 µM / MIC50: Acanthamoeba castellanii; for viability at 50 µM: 24 h, negative control 100%, read-out: amoeba viability; for MIC50: read-out: MIC50 (minimum inhibitory concentration required to inhibit 50% of amoeba growth); for A. castellanii, 25 µM: Table 2, 25 µM; for A. castellanii, 25 µM / A. castellanii, 75 µM / A. castellanii, 100 µM: amoeba alone 100; for A. castellanii, 75 µM: Table 2, 75 µM; for A. castellanii, 100 µM: Table 2, 100 µM
Protocol: Acanthamoeba castellanii genotype T4 (ATCC 50492) was cultivated in 10 mL growth medium of peptone yeast glucose (PYG) in tissue flasks (Baig, et al., 2021; Anwar, et al., 2019). The growth medium, PYG, consists of 0.75% proteose peptone, 0.75% yeast extract, and 1.5% glucose. Next, the amoebae were kept in tissue flasks and incubated at 30 °C.
To determine the compounds’ antiamoebic effects, amoebicidal assays were conducted. The 5 × 10^5 amoebae were placed in a 24-well plate and brought to a final volume of 500 µL. […] The 24-well plate was then placed in a 30 °C incubator for 24 h. Positive and negative controls were added to the assay in order to ensure reliable results. Serving as the negative control was the amoebae alone, with RPMI [4]. Meanwhile, amoebae, along with 0.25% sodium dodecyl sulphate (SDS), were used as the positive control. Through the addition of 0.1% methylene blue, live and dead amoebae were distinguished. Additionally, significant compounds were identified by conducting a Student’s t-test with a two-tailed distribution. Furthermore, the MIC50 values of three compounds were determined by using concentrations of […], 75, and 100 µM.

[3] = test system: Acanthamoeba castellanii cysts; experiment: Excystation assay; type: cell-based; settings: cysts in PYG, negative control 100%, read-out: viable trophozoites (re-emergence of cysts to trophozoites)
Protocol: Amoeba culture was suspended in 3 mL phosphate-buffered saline (PBS) and placed on non-nutrient bacteriological agar plates to allow for the growing of Acanthamoeba castellanii cysts. After two weeks, PBS was applied to plates containing amoeba cysts, which were then scraped off. The amoebae were centrifuged at 3000× g for 10 min, and the resulting pellet was resuspended in RPMI. The 5 × 10^5 cysts were then incubated in PYG, along with 50 µM of the compounds. To ensure accuracy, amoeba cysts in PYG alone were considered as the negative control, whereas amoeba cysts in RPMI alone were taken as the positive control, as the cysts would not be able to revert back to trophozoites. The amoeba trophozoites were then numbered by using a haemocytometer.

Acanthamoeba castellanii [4] = experiment: Encystation assay; type: cell-based; settings: 16% glucose, 48 h, negative control 100% cysts
Protocol: The effects of the compounds on amoeba encystation were determined through the conduction of encystation assays. Briefly, 1 × 10^6 trophozoites were incubated with the compounds in a final concentration of 16% filter-sterilized glucose. Following a 48 h incubation period, 0.1% SDS was added per well for 20 min. The cysts were then counted by using a haemocytometer. To ensure accuracy, Acanthamoeba castellanii was cultured in 16% glucose, serving as the negative control.

[5] = test system: Acanthamoeba cysts and trophozoites; design: method as in PMID 9736540; settings: 0.5 to 2.5% solution; cited from earlier work
[6] = design: method as in PMID 35600289; settings: pH of 7; cited from earlier work
[7] = design: method as in PMID 35600289; settings: cited from earlier work

Compound	cytotoxicity against human HeLa cells (HeLa cells) [%]	amoeba-mediated host-cell death (cytotoxic activity due to amoeba) [1] [%]	viability at 50 µM (Acanthamoeba castellanii [2]) [%]	viability at 50 µM [3] [%]	cysts present (Acanthamoeba castellanii [4]) [%]	MIC50 (Acanthamoeba castellanii [2]) [µM]	A. castellanii, 25 µM (Acanthamoeba castellanii [2])	A. castellanii, 75 µM (Acanthamoeba castellanii [2])	A. castellanii, 100 µM (Acanthamoeba castellanii [2])	toxic activity (positive control) (HeLa cells) [%]	antiamoebic activity [5]	solubility in water [6]	pKa [7]
Cn1cc(NC(=O)c2cc(NC(=O)c3cc4ccccc4oc3=O)cn2C)cc1C(=O)NCCCN1CCOCC1 [MGB16, 1-methyl-N-(1-methyl-5-{[3-(morpholin-4-yl)propyl]carbamoyl}-1H-pyrrol-3-yl)-4-(2-oxo-2H-chromene-3-amido)-1H-pyrrole-2-carboxamide]	12.7	88.6	43.2	51.7	45.6	–	–	–	–	–	–	–	–
Cc1ccc(CSCCC(=O)Nc2cc(C(=O)Nc3cc(C(=O)NCCCN(C)C)n(C)c3)n(C)c2)cc1 [MGB22, N-(3-(dimethylamino)propyl)-1-methyl-4-(1-methyl-4-(3-((4-methylbenzyl)thio)propanamido)-1H-pyrrole-2-carboxamido)-1H-pyrrole-2-carboxamide]	33.7	71.5	66.5	52.9	30.3	–	–	–	–	–	–	–	–
CC(C)c1sc(NC(=O)c2cc(NC(=O)c3cc(NC(=O)c4nccn4C)cn3C)cn2C)nc1C(=O)NCCCN(C)C [MGB3, N-(3-(dimethylamino)propyl)-5-isopropyl-2-(1-methyl-4-(1-methyl-4-(1-methyl-1H-imidazole-2-carboxamido)-1H-pyrrole-2-carboxamido)-1H-pyrrole-2-carboxamido)thiazole-4-carboxamide]	16.2	41.5	76.2	64.3	83.5	65.9 (≈ 41 µg/mL)	43.7 ± 3.8	51 ± 4.7	46 ± 4.8	–	–	–	–
Triton X-100 [reference compound]	–	–	–	–	–	–	–	–	–	100	–	–	–
CN(C)CCCNC(=O)c1cc(NC(=O)c2cc(NC(=O)c3cc(NC(=O)c4cscn4)cn3C)cn2C)cn1C [MGB6, N-(5-((5-((5-((3-(dimethylamino)propyl]carbamoyl)-1-methyl-1H-pyrrol-3-yl)carbamoyl)-1-methyl-1H-pyrrol-3-yl}carbamoyl)-1-methyl-1H-pyrrol-3-yl)-1,3-thiazole-4-carboxamide]	14.4	49.5	59.5	41.4	46.3	58.3 (≈ 33.8 µg/mL)	57 ± 2.4	48 ± 5.5	45 ± 1.4	–	–	–	–
CN(C)CCCNC(=O)c1cc(NC(=O)c2cc(NC(=O)c3ccc(C#Cc4ccccc4)cc3)cn2C)cn1C [MGB26, N-(3-(dimethylamino)propyl)-1-methyl-4-(1-methyl-4-(4(phenylethynyl)benzamido)-1H-pyrrole-2-carboxamido)-1H-pyrrole-2-carboxamide]	33.5	67.3	82.7	79.1	52.3	–	–	–	–	–	–	–	–
Cn1cc(NC(=O)c2cc(NC(=O)CCSc3ccc4ccccc4c3)cn2C)cc1C(=O)NCCCN1CCOCC1 [MGB20, 1-methyl-4-(1-methyl-4-(3-(naphthalen-2-ylthio)propanamido)-1H-pyrrole-2-carboxamido)-N-(3-morpholinopropyl)-1H-pyrrole-2-carboxamide]	31.4	83.2	81.9	96	39	83.6 (≈ 50.4 µg/mL)	64 ± 3.2	54.6 ± 5.8	48 ± 1.1	–	–	–	–
Cn1cc(NC(=O)c2cc(NC(=O)c3ccc(/C=C/c4ccccc4)cc3)cn2C)cc1C(=O)NCCCN1CCOCC1 [MGB32, (E)-1-methyl-4-(1-methyl-4-(4-styrylbenzamido)-1H-pyrrole-2-carboxamido)-N-(3-morpholinopropyl)-1H-pyrrole-2-carboxamide]	22.4	96.3	80.1	62.1	41.5	–	–	–	–	–	–	–	–
CC(C)c1sc(NC(=O)c2cc(NC(=O)c3cc(NC(=O)c4cscn4)cn3C)cn2C)nc1C(=O)NCCCN(C)C [MGB4, N-(3-(dimethylamino)propyl)-5-isopropyl-2-(1-methyl-4-(1-methyl-4-(thiazole-4-carboxamido)-1H-pyrrole-2-carboxamido)-1H-pyrrole-2-carboxamido)thiazole-4-carboxamide]	18.4	49.4	95.2	47.3	82.3	–	–	–	–	–	–	–	–
CN(C)CCCNC(=O)c1cc(NC(=O)c2cc(NC(=O)c3ccc(/C=C/c4ccccc4)cc3)cn2C)cn1C [MGB30, (E)-N-(3-(dimethylamino)propyl)-1-methyl-4-(1-methyl-4-(4-styrylbenzamido)-1H-pyrrole-2-carboxamido)-1H-pyrrole-2-carboxamide]	34	87.3	63.4	78.1	27.8	–	–	–	–	–	–	–	–
povidone-iodine	–	–	–	–	–	–	–	–	–	–	good amount of antiamoebic activity	–	–
Cn1cc(NC(=O)c2cc(NC(=O)c3ccc(/C=C/c4cnc5ccccc5c4)cc3)cn2C)cc1C(=O)NCCN1CCOCC1 [MGB-BP-3]	–	–	–	–	–	–	–	–	–	–	–	insoluble in water	5.26
Cn1cc(NC(=O)c2cc(NC(=O)c3ccc(C#Cc4ccccc4)cc3)cn2C)cc1C(=O)NCCCN1CCOCC1 [MGB28, 1-methyl-4-(1-methyl-4-(4-(phenylethynyl)benzamido)-1H-pyrrole-2-carboxamido)-N-(3-morpholinopropyl)-1H-pyrrole-2-carboxamide]	13.7	91.9	97.2	40.6	29.6	–	–	–	–	–	–	–	–
